ChEMBL document CHEMBL3769326, “Discovery of fluoroquinolone derivatives as potent, selective inhibitors of PI3K” (Medchemcomm, 2015)

Legend:
HeLa = assay: Antiproliferative activity against human HeLa cells after 72 hrs by MTT assay; format: functional, cell-based
[1] = biological target: T1, Phosphatidylinositol 4,5-bisphosphate 3-kinase catalytic subunit delta isoform (Homo sapiens, UniProt O00329); assay: Inhibition of human PI3Kdelta by fluorescence-based immunoassay
T1 sequence (O00329 whole entry): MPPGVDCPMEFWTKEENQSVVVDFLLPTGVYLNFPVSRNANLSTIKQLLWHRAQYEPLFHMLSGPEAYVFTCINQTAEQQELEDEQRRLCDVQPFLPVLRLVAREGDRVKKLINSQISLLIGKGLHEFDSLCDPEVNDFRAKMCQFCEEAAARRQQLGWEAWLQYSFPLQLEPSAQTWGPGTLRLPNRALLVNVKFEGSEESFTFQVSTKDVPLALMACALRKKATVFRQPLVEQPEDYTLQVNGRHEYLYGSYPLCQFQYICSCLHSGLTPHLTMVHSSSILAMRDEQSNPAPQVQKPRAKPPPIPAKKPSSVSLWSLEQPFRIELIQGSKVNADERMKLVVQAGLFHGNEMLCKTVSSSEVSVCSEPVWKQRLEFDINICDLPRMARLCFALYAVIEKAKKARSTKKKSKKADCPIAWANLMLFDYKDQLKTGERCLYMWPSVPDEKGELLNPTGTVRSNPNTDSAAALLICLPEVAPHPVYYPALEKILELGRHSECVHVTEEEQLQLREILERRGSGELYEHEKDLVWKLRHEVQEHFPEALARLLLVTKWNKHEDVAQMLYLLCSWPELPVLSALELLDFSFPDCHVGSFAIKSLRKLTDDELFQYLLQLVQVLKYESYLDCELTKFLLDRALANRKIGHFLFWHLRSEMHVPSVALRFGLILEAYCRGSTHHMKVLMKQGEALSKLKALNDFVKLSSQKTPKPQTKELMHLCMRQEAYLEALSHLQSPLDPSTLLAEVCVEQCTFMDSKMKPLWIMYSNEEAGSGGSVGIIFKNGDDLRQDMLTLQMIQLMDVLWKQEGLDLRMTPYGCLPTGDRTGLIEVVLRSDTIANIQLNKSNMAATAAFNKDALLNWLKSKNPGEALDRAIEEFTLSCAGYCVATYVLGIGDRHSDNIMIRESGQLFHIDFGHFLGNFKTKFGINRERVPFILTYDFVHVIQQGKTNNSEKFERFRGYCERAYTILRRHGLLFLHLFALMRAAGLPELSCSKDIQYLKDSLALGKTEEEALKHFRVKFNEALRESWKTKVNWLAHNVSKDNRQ

A549 = assay: Antiproliferative activity against human A549 cells after 72 hrs by MTT assay; format: functional, cell-based; conditions: A549, 72 h
[2] = biological target: Phosphatidylinositol 4,5-bisphosphate 3-kinase catalytic subunit gamma isoform (Homo sapiens, UniProt P48736); assay: Inhibition of human PI3K 110gamma by fluorescence-based immunoassay
Sequence of Phosphatidylinositol 4,5-bisphosphate 3-kinase catalytic subunit gamma isoform (P48736 whole entry, canonical isoform): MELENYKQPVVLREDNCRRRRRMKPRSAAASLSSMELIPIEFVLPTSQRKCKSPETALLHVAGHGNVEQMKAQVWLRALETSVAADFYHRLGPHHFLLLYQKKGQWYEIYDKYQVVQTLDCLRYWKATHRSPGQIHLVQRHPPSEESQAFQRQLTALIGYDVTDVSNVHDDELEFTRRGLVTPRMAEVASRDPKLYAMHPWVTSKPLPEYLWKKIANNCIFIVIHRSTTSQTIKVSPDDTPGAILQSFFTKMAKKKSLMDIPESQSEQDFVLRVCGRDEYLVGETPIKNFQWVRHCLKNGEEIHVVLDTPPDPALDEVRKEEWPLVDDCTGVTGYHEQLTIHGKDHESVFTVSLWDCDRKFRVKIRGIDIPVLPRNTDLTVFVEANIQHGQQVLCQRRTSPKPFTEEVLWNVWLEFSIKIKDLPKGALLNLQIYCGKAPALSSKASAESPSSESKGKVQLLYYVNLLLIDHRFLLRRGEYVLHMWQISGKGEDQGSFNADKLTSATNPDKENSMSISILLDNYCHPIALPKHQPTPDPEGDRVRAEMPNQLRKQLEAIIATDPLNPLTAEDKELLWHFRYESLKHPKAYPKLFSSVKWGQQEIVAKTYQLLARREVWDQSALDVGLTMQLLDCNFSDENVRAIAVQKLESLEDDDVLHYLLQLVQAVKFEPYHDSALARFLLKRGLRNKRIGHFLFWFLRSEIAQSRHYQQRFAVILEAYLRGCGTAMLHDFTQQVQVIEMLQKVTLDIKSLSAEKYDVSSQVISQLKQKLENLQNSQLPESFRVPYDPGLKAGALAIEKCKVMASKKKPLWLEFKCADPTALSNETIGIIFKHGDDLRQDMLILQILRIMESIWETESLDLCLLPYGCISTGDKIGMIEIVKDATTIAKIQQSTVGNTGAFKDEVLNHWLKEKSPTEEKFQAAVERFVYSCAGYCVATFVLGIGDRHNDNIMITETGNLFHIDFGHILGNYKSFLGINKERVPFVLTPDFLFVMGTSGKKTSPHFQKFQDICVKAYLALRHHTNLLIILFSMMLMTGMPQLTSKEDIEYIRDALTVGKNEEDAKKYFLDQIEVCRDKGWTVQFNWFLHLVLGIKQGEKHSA

MCF7 = assay: cells; conditions: Homo sapiens, MCF7, 72 h
[3] = biological target: Phosphatidylinositol 3-kinase regulatory subunit beta/Phosphatidylinositol 4,5-bisphosphate 3-kinase catalytic subunit beta isoform (Homo sapiens, UniProt P42338); assay: Inhibition of human PI3K p110beta/p85beta by fluorescence-based immunoassay; format: protein-complex assay
Sequence of Phosphatidylinositol 3-kinase regulatory subunit beta/Phosphatidylinositol 4,5-bisphosphate 3-kinase catalytic subunit beta isoform (P42338 whole entry, canonical isoform): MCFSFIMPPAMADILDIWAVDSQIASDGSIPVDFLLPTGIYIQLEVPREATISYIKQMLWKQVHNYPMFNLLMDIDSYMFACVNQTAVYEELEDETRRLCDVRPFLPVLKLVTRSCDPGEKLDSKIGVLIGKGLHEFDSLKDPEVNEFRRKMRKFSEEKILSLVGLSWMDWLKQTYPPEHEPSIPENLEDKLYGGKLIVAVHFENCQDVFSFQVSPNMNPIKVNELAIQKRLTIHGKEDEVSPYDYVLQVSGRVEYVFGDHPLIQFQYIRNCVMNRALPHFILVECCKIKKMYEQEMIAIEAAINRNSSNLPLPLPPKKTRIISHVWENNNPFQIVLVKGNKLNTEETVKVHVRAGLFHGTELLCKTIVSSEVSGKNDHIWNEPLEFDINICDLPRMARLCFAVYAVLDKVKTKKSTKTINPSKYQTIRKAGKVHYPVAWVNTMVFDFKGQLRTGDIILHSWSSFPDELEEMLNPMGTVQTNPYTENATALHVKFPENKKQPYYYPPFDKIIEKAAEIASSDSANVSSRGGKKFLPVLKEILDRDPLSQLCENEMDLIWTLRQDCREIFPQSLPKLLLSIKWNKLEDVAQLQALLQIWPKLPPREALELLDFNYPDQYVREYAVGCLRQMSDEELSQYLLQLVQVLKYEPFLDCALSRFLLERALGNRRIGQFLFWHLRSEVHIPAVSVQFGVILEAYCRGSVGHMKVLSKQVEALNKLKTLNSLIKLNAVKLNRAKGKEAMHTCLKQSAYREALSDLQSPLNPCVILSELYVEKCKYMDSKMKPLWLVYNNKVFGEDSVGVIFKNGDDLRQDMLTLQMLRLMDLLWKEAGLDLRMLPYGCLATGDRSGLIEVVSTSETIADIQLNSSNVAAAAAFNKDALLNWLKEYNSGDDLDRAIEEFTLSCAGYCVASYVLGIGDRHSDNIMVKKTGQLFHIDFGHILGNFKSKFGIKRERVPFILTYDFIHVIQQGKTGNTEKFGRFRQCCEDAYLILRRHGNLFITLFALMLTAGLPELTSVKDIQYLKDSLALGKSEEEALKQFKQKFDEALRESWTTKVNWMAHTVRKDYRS
Sequence of Phosphatidylinositol 3-kinase regulatory subunit beta/Phosphatidylinositol 4,5-bisphosphate 3-kinase catalytic subunit beta isoform (O00459 whole entry, further chain, canonical isoform): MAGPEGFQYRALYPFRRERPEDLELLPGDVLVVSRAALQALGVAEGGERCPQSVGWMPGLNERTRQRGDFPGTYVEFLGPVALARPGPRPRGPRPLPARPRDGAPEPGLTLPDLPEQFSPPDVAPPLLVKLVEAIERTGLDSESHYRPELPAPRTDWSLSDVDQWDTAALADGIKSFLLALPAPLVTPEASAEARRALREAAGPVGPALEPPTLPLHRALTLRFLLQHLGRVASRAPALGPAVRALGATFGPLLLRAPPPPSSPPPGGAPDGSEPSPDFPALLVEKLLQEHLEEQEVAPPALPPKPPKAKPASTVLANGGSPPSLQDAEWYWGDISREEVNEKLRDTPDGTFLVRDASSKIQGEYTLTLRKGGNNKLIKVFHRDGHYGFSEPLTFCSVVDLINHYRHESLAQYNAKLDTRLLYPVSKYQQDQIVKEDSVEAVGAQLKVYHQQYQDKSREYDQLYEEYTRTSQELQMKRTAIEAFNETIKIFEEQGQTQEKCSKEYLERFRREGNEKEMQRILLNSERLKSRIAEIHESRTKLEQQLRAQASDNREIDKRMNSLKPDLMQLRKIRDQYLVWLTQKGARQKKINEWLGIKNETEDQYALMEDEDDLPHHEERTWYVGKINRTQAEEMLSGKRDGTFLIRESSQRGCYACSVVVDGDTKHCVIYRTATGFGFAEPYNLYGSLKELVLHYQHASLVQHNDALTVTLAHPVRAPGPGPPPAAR

[4] = biological target: PI3-kinase p110-alpha/p85-alpha (Homo sapiens, UniProt P42336); assay: Inhibition of human PI3K p110alpha/p85alpha by fluorescence-based immunoassay; format: protein-complex assay
Sequence of PI3-kinase p110-alpha/p85-alpha (P27986 whole entry): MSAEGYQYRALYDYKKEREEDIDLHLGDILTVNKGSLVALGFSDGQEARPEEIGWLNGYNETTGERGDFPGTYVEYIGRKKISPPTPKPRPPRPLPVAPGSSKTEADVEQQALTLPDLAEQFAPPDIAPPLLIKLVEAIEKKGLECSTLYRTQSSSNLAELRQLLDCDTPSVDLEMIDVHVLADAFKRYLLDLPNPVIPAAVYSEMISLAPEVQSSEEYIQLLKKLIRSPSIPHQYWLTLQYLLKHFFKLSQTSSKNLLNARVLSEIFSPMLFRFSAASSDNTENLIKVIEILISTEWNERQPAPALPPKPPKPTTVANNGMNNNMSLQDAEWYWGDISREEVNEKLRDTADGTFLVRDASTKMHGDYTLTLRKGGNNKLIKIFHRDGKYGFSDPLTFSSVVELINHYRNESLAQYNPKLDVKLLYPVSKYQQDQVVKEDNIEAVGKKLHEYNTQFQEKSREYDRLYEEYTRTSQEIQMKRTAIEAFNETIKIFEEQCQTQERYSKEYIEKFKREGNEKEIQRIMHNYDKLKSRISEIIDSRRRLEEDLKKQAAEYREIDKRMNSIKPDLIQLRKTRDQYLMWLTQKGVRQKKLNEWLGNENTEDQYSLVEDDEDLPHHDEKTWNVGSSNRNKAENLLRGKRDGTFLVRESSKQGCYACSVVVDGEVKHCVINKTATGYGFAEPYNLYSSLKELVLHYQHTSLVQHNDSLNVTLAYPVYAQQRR
Sequence of PI3-kinase p110-alpha/p85-alpha (P42336 whole entry): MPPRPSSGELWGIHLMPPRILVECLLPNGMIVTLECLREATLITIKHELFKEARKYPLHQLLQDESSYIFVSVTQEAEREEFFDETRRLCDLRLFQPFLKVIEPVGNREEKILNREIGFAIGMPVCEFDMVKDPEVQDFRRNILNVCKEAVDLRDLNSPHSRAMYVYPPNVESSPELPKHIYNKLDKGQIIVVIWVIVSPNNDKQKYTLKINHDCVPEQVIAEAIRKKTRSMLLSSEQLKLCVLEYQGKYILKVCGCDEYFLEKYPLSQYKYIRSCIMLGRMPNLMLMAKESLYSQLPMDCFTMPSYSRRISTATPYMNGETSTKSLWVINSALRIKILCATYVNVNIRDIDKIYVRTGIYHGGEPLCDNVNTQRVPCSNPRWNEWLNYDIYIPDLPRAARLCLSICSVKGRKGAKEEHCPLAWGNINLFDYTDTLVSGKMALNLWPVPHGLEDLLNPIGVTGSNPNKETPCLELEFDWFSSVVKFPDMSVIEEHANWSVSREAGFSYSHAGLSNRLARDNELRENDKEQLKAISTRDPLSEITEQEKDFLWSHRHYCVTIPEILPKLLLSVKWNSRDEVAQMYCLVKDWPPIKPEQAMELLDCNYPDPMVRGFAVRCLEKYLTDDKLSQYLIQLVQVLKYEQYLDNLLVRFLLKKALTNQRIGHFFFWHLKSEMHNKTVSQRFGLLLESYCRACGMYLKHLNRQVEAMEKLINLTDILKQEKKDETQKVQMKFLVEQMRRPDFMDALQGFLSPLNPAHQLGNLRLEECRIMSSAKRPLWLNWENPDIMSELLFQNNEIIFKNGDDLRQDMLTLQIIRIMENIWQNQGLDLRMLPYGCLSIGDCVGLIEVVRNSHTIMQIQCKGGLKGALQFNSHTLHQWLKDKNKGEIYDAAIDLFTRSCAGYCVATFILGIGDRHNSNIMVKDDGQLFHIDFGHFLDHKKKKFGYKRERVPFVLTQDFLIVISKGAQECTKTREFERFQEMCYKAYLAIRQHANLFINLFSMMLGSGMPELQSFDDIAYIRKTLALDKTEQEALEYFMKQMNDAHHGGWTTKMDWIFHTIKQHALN

HepG2 = assay: cells; conditions: Homo sapiens, HepG2, 72 h
[5] = Cytotoxicity against macrophages after 72 hrs by MTT assay; format: cell-based, Macrophage

Row | Compound | IC50 (HeLa) | IC50 [1] | IC50 (A549) | IC50 [2] | IC50 (MCF7) | IC50 [3] | IC50 [4] | IC50 (HepG2) | CC50 at 72 h [5]
1 | CCn1cc(C(=O)O)c(=O)c2cc(F)c(N3CCN(C(=O)c4ccc(OC)nc4)CC3)cc21 | 154 µM | > 1 µM | > 1000 µM | 0.279 µM | 357 µM | > 1 µM | > 1 µM | 426 µM | 
2 | O=C(O)c1cn(C2CC2)c2cc(N3CCN(C(=O)c4cc(Cl)ccc4O)CC3)c(F)cc2c1=O | 64.2 µM | 0.553 µM | 114 µM | 0.174 µM | 88.4 µM | > 1 µM | 0.963 µM | 50.6 µM | 269 µM
3 | O=C(O)c1cn(C2CC2)c2cc(N3CCN(C(=O)c4cc([N+](=O)[O-])ccc4O)CC3)c(F)cc2c1=O | 25.8 µM | 0.722 µM | 87.1 µM | 0.185 µM | 47.9 µM | > 1 µM | 0.591 µM | 122 µM | 297 µM
4 | CCn1cc(C(=O)O)c(=O)c2cc(F)c(N3CCN(C(=O)c4cccnc4Cl)CC3)cc21 | 88.9 µM | > 1 µM | 279 µM | 0.259 µM | 212 µM | > 1 µM | > 1 µM | > 1000 µM | 
5 | CCn1cc(C(=O)O)c(=O)c2cc(F)c(N3CCN(C(=O)c4cc(Cl)ccc4O)CC3)cc21 | 0.96 µM | 0.311 µM | 1.55 µM | 0.098 µM | 1.21 µM | > 1 µM | 0.712 µM | 2.94 µM | 273 µM
6 | O=C(O)c1cn(C2CC2)c2cc(N3CCN(C(=O)c4cccnc4Cl)CC3)c(F)cc2c1=O | 279 µM | > 1 µM | > 1000 µM | 0.265 µM | 153 µM | > 1 µM | > 1 µM | 179 µM | 
7 | CCn1cc(C(=O)O)c(=O)c2cc(F)c(N3CCN(C(=O)c4cc(OC)ccc4O)CC3)cc21 | 2.11 µM | 0.489 µM | 1.06 µM | 0.112 µM | 3.79 µM | > 1 µM | 0.698 µM | 0.47 µM | 279 µM
8 | CCn1cc(C(=O)O)c(=O)c2cc(F)c(N3CCN(C(=O)c4c(C)cccc4O)CC3)cc21 | 53.3 µM | 0.683 µM | 121 µM | 0.173 µM | 107 µM | > 1 µM | 0.914 µM | 27.9 µM | 343 µM
9 | O=C(O)c1cn(C2CC2)c2cc(N3CCN(C(=O)c4cc(Br)ccc4O)CC3)c(F)cc2c1=O | 19.6 µM | 0.674 µM | 77 µM | 0.169 µM | 22.1 µM | > 1 µM | 0.894 µM | 36.7 µM | 289 µM
10 | COc1ccc(C(=O)N2CCN(c3cc4c(cc3F)c(=O)c(C(=O)O)cn4C3CC3)CC2)cn1 | 344 µM | > 1 µM | 680 µM | 0.285 µM | 42.2 µM | > 1 µM | > 1 µM | 65.9 µM | 

These reach a lower IC50 (HeLa). Values come first.

Row | IC50 (HeLa) | IC50 [1] | IC50 (A549) | IC50 [2] | IC50 (MCF7) | IC50 [3] | IC50 [4] | IC50 (HepG2) | Compound | CC50 at 72 h [5]
11 | 0.06 µM | 0.271 µM | 0.67 µM | 0.056 µM | 0.11 µM | > 1 µM | 0.356 µM | 0.29 µM | O=C(O)c1cn(C2CC2)c2cc(N3CCN(C(=O)c4cc([N+](=O)[O-])cc([N+](=O)[O-])c4O)CC3)c(F)cc2c1=O | 365 µM
12 | 0.16 µM | 0.348 µM | 0.85 µM | 0.089 µM | 0.33 µM | > 1 µM | 0.642 µM | 2.59 µM | COc1ccc(C(=O)N2CCN(c3cc4c(cc3F)c(=O)c(C(=O)O)cn4C3CC3)CC2)c(O)c1 | 311 µM
13 | 0.51 µM | 0.474 µM | 0.99 µM | 0.111 µM | 7.03 µM | > 1 µM | 0.695 µM | 3.22 µM | CCn1cc(C(=O)O)c(=O)c2cc(F)c(N3CCN(C(=O)c4cc(Br)ccc4O)CC3)cc21 | 266 µM
14 | 0.15 µM |  | 0.33 µM |  | 0.78 µM |  |  |  | CC[C@H](Nc1ncnc2[nH]cnc12)c1nc2cccc(F)c2c(=O)n1-c1ccccc1 [IDELALISIB] | 
